According to US6887896B1, “7-[(7-Alkoxy)-chrom-3-en-6-yl]-heptatrienoic acid and 7-[(3-alkoxy)-5,6-dihydronaphthalen-2-yl]-heptatrienoic acid derivatives having serum glucose reducing activity” (Allergan, Inc., priority 2003, dated 2005):

How the values were obtained:
ob/ob mice [1] = experiment: serum glucose, triglycerides and T4 in ob/ob mice, drug mixed in control diet over 7 days; assay type: in vivo; settings: 30 mg/kg per day in diet; for Glucose Day 0 / Triglycerides Day 0: day 0 (pre-treatment)
ob/ob mice [2] = experiment: serum glucose, triglycerides and T4 in diabetic mice, oral gavage in corn oil daily for seven days; assay type: in vivo; settings: for Glucose Day 0 / Triglycerides Day 0: day 0 (pre-treatment)
[3] = 50 mg/kg, corn oil vehicle (Table 7)
[4] = 80 mg/kg, corn oil vehicle (second Table 9)

T4 Day 7 (ob/ob mice [1])	SMILES	Glucose Day 3, 3 h (ob/ob mice [1])	Glucose Day 6, 3 h (ob/ob mice [1])	Triglycerides Day 3, 3 h (ob/ob mice [1])	Glucose Day 0 (ob/ob mice [1])	Triglycerides Day 0 (ob/ob mice [1])	also measured
4.5 µg/dL	CCOc1c(\C(C)=C/C=C/C(C)=C/C(=O)O)cc2c(c1Cl)OC(C)(C)C=C2C(C)C [Compound 50, 7-(8-Chloro-4-isopropyl-7-ethoxy-2,2-dimethyl-2H-chromen-6-yl)-3-methyl-octa-2E,4E,6Z-trienoic acid]	209 mg/dL	237 mg/dL	90 ± 33 mg/dL	288 mg/dL	122 mg/dL	
4.5 µg/dL	CCOc1c(\C(C)=C(F)/C=C/C(C)=C/C(=O)O)cc2c(c1Cl)OC(C)(C)C=C2C(C)C [Compound 172, 7-(8-Chloro-4-isopropyl-7-ethoxy-2,2-dimethyl-2H-chromen-6-yl)-6-fluoro-3-methyl-octa-2E,4E,6E-trienoic acid]	193 mg/dL	206 mg/dL	68 ± 22 mg/dL	292 mg/dL	107 mg/dL	
	CCOc1cc2c(cc1\C(=C/C=C/C(C)=C/C(=O)O)CC)C(C)=CCC2(C)C [Compound A-16, 7-(3-Ethoxy-5,5,8-trimethyl-5,6-dihydronaphthalen-2-yl)-3-methyl-nona-2E,4E,6Z-trienoic acid]						Glucose Day 3, 3 h (ob/ob mice [2]; [3]): 297 mg/dL; Glucose Day 6, 3 h (ob/ob mice [2]; [3]): 267 mg/dL; T4 Day 7 (ob/ob mice [2]; [3]): 4.2 µg/dL; Triglycerides Day 3, 3 h (ob/ob mice [2]; [3]): 121 mg/dL; Glucose Day 0 (ob/ob mice [2]; [3]): 443 mg/dL; Triglycerides Day 0 (ob/ob mice [2]; [3]): 160 mg/dL
	CCOc1c(\C(CC)=C(F)/C=C/C(C)=C/C(=O)O)cc2c(c1Br)C(C)(C)CC=C2C(C)C [Compound A-170, (2E,4E,6E)-7-(4-Bromo-3-ethoxy-8-isopropyl-5,5-dimethyl-5,6-dihydro-naphthalen-2-yl)-6-fluoro-3-methyl-nona-2,4,6-trienoic acid]						Glucose Day 3, 3 h (ob/ob mice [2]; [4]): 294 mg/dL; Glucose Day 6, 3 h (ob/ob mice [2]; [4]): 255 mg/dL; T4 Day 7 (ob/ob mice [2]; [4]): 2.7 µg/dL; Triglycerides Day 3, 3 h (ob/ob mice [2]; [4]): 195 mg/dL; Glucose Day 0 (ob/ob mice [2]; [4]): 423 mg/dL; Triglycerides Day 0 (ob/ob mice [2]; [4]): 168 mg/dL
